Test results taken from patent US20260083126A1, “ANTIMICROBIAL COMPOSITIONS” (AHV International B.V., priority 2022, published 2026).
Converted amounts (≈) assume the structure as drawn. Like-named read-outs stand apart in the source and are kept apart here.

How the values were obtained:
Assay type in all cases: cell-based
[1] = tested on: Streptococcus agalactiae ATCC 13813; test: MIC assay; settings: for MIC50 / MIC90: Streptococcus agalactiae, ATCC13813
Protocol: (§1) The exact weighed amount was noted and the volume of solvent to reach a 80 mM dilution calculated. Half of the volume was added first, by adding Tween 80 and let stand for 5 minutes. In a second step, the other half of the volume DMSO was added and resuspended to help the dilution process. The closed tube was inverted 5-10 times and then vortexed very thoroughly for at least 30 seconds. If after this procedure crystals were still visible, the tube was placed in a shaker at 37° C. at 150 rpm for at least 30 minutes (it is indicated if the dissolution period was longer than 2 h). […] In case of Bis(4-Chlorophenyl) thiosulfonate, a lower concentrated stock solution of 2 mM needed to be prepared. For that, the required amount of compound was weighed in and 2% v/v Tween80 and 2% v/v DMSO of the end volume of the stock solution was added to the substance. This mix was heated in a water bath set to 40° C. and occasionally shaken. When the whole amount of the substance reached dissolution, the volume was filled up with growth medium until the end volume. This 2 mM stock solution of Bis(4-Chlorophenyl) thiosulfonate was used in the MIC plate and diluted two-fold, resulting in a testing range of Bis(4-Chlorophenyl) thiosulfonate from 1 mM to 0.002 mM.
(§2) The microorganisms as indicated in Table 4 were used to inoculate a tryptic soy agar (TSA) plate and incubated overnight at 37° C. After incubation 3-5 well-isolated colonies with the same morphology were selected from the TSA plate and resuspended in 2 mL 0.9% saline solution with 3-6 glass beads and vortexed. The optical density at 600 nm (OD600) of the bacterial suspension was measured with a spectrophotometer (Evolution™ 201/220 UV-Visible Spectrophotometer, Thermo Fisher Scientific) and diluted to an OD600 of 0.0008, which resembles 10^6 CFU/mL.
(§3) The MIC assay was performed in a flat-bottom 96-microtiter plate. 50 μL of MHB-II was added into columns 2-11, and 100 μL to column 12 for sterility control. 100 μL of the 8 mM test compound solution (method 1) was added to column 1. A two-fold dilution series of the solution in MHB-II was achieved by resuspending 50 μL of the 8 mM solution from column 1 to column 2. This step was repeated until column 10. The respective concentration of Tween 80 and DMSO in column 1 was 2.5%, which is two-fold diluted throughout the plate. 50 μL of the bacterial suspension was added to column 1-11. The microtiter plates were sealed with adhesive polyethylene film for sealing microplates (Diversified Biotech) and incubated for 24 h at 37° C. After incubation the OD was measured at 600 nm with the Varioskan (Thermo Fisher Scientific). The minimal concentration which causes reduction of final OD600 of the bacterial culture by 50% (MIC50) and by 90% (MIC90) was calculated after normalization of the obtained OD values to the growth control in column 11. This assay was repeated three times in three independent experiments.
(§4) Hereafter, the stock solutions of the compounds were used in three repetitions in a minimal inhibitory concentration (MIC) assay at a 2-fold dilution range with various bacteria from the gram-positive and gram-negative group and a yeast, Candida albicans. The concentrations that show only less than 10% growth after 24 h were considered the MIC90-values, whereas the concentrations that show 50% growth after 24 h when compared to the bacterial growth control were considered the MIC50-values. Escherichia coli and Staphylococcus aureus were used as representatives for a gram-negative bacteria and gram-positive bacteria, respectively. Furthermore, the yeast C. albicans was also tested.
(§5) In an Eppendorf tube between 10-20 mg of the test compound was weighed. Hereafter, the required amount of Tween 80 was added, followed by the amount DMSO. After vigorous shaking, the dissolved and transparent dilutions were diluted 10 times with Mueller Hinton Broth (MHB) for the MIC assay. […]

[2] = tested on: Streptococcus Suis Type 2 21-018358-002; test: MIC assay; settings: for MIC50 / MIC90: Streptococcus suis
Protocol: as §1, §2, §3, §4, §5

[3] = tested on: Micrococcus luteus ATCC 4698; test: MIC assay; settings: Example 2a, n = 3, ATCC 4698; for MIC50 / MIC90: Micrococcus luteus, ATCC4698
Protocol: as §1, §2, §3

[4] = tested on: Pseudomonas aeruginosa ATCC 27853 biofilm; test: MBIC assay (crystal violet); settings: 48 h at 37° C., absorbance 540 nm
Protocol: as §1
Frozen aliquots of Staphylococcus epidermis ATCC 35984 and Pseudomonas aeruginosa ATCC 27853 were used to inoculate a tryptic soy agar (TSA) plate and were incubated overnight at 37° C. After incubation 3-5 well-isolated colonies with the same morphology were selected from the TSA plate and resuspended in 2 ml 0.9% saline solution with 3-6 glass beads and vortexed. The optical density of the bacterial suspension was measured at 600 nm (OD600) with a spectrophotometer (Evolution™ 201/220 UV-Visible Spectrophotometer, Thermo Fisher Scientific) and diluted to an OD600 of 0.2. The MBIC assay was performed in a 96-microtiter plate. […] The solution was resuspended and transferred to a flat-bottom 96-well plate and the absorbance measured at 540 nm with the spectrophotometer. […]

[5] = Example 2a, n = 3, 21-018358-002
[6] = Example 2a, n = 3, ATCC 13813, read-out: MIC90 Streptococcus agalactiae (+)
[7] = Example 2a, n = 3, 21-018358-002, read-out: MIC90 Streptococcus Suis Type 2 (+)

Compound	MIC50 Streptococcus agalactiae (+) ([1]; Example 2a, n = 3, ATCC 13813) [µM]	MIC90 Streptococcus agalactiae (+) ([1]; Example 2a, n = 3, ATCC 13813) [µM]	MIC50 Streptococcus Suis Type 2 (+) [2, 5] [µM]	MIC90 Streptococcus Suis Type 2 (+) [2, 5] [µM]	MIC50 Micrococcus luteus (+) [3] [µM]	MIC90 Micrococcus luteus (+) [3] [µM]	P. aeruginosa MBIC90 [4] [mM]	also measured
O=S(=O)(Sc1ccc(Cl)cc1)c1ccc(Cl)cc1 [Bis (4-chlorophenyl) thiosulfonate, Bis(4-chlorophenyl) thiosulfonate]	160	500	130	370	210	750		
O=S(=O)(Sc1ccc(F)cc1)c1ccc(F)cc1 [Bis (4-fluorophenyl) thiosulfonate, Bis(4-fluorophenyl) thiosulfonate]	1330	1670	750	880	1500	2000		
Fc1ccc(SSc2ccc(F)cc2)cc1 [Bis (4-fluorophenyl) disulfide, Bis(4-fluorophenyl) disulfide]								MIC50 ([1]; Example 2a, n = 3, ATCC 13813): 210 µM (≈ 53.4 µg/mL); MIC90 [1, 6]: 500 µM (≈ 127 µg/mL); MIC50 [2, 5]: 380 µM (≈ 96.6 µg/mL); MIC90 [2, 7]: 1670 µM (≈ 425 µg/mL); MIC50 [3]: 750 µM (≈ 191 µg/mL); MIC90 [3]: 2000 µM (≈ 509 µg/mL)
CCCSSCCC [Di-n-propyl disulfide, reference compound]							>4	
Clc1ccc(SSc2ccc(Cl)cc2)cc1 [Bis (4-chlorophenyl) disulfide, Bis(4-chlorophenyl) disulfide]							>4	MIC50 ([1]; Example 2a, n = 3, ATCC 13813): 10 µM (≈ 2.87 µg/mL); MIC90 [1, 6]: 70 µM (≈ 20.1 µg/mL); MIC90 ([1]; Example 2b, FIG. 1, no MIC90 detected in the tested range, read-out: Average MIC90 S. agalactiae (Sag)): > 1000 µM; MIC50 [2, 5]: 60 µM (≈ 17.2 µg/mL); MIC90 [2, 7]: 50 µM (≈ 14.4 µg/mL); MIC90 ([2]; Example 2b, FIG. 1, no MIC90 detected in the tested range, read-out: Average MIC90 S. suis (Ss)): > 1000 µM; MIC50 [3]: 50 µM (≈ 14.4 µg/mL); MIC90 [3]: 250 µM (≈ 71.8 µg/mL)
[O-][S+](Sc1ccc(F)cc1)c1ccc(F)cc1 (centres unmarked) [Bis (4-fluorophenyl) thiosulfinate, Bis(4-fluorophenyl) thiosulfinate]	1040 (≈ 281 µg/mL)	1670 (≈ 451 µg/mL)	380 (≈ 103 µg/mL)	830 (≈ 224 µg/mL)	2000 (≈ 541 µg/mL)	3330 (≈ 900 µg/mL)		
CCCSS(=O)(=O)CCC [Di-n-propyl thiosulfonate, reference compound]							0.5	
